# Biological target: BcRtt109-GST (Botrytis cinerea, UniProt A0A384J919)
# Experiment: in vitro acetylation of BcTol1-His6, immunoblot with anti-K122ac
# Assay type: biochemical
# Details: 0.2 mM acetyl-CoA; acceptor BcTol1-His6; 50 mM Tris-HCl pH 8.0, 37 °C, 1 h
# BcRtt109-GST, sequence (A0A384J919 entry or part of it): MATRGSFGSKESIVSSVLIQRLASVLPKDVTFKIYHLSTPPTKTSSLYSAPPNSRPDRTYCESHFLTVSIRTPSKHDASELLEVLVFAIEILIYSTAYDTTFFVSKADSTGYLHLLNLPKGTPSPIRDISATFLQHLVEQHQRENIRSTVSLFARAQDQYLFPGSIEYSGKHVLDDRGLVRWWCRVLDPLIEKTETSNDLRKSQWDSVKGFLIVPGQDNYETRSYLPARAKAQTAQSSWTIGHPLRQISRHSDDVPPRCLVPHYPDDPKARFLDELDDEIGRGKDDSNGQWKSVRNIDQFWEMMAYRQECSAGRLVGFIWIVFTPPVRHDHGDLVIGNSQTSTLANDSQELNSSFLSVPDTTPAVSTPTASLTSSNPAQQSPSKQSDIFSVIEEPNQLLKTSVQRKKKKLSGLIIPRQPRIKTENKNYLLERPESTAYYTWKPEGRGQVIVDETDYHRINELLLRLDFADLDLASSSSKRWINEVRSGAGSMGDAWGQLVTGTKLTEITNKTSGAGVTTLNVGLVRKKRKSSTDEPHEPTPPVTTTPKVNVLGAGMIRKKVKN
compound,measurement,value
CC(=O)SCCNC(=O)CCNC(=O)[C@H](O)C(C)(C)COP(=O)(O)OP(=O)(O)OC[C@H]1O[C@@H](n2cnc3c(N)ncnc32)[C@H](O)[C@@H]1OP(=O)(O)O [acetyl-CoA],"in vitro acetylation of BcTol1-His6, immunoblot with anti-K122ac","purified BcRtt109-GST, but not GST itself, acetylates WT BcTol1 effectively in vitro"
